Key:
HBV/ayW1 = assay: Antiviral effect against HBV in HepG-2 cells; type: cell-based; conditions: Hepatitis B virus, HepG2; HBV/ayW1 in HepG-2 cells
[1] = Cell toxicity in the HBV assay; type: cell-based; conditions: human, HepG-2 cells

COc1nc(Cl)nc2c1ncn2[C@@H]1O[C@H](COP(=O)(N[C@@H](C)C(=O)OC(C)C)Oc2ccccc2)C(C)(Cc2nnn[nH]2)[C@H]1F (stereo partly drawn) [LCB-2147]
EC50 (HBV/ayW1): 4 µM
EC90 (HBV/ayW1): 16 µM
CC50 [1]: > 100 µM
